For eleven compounds, DC50 and Dmax results are on record in patent US20250114356A1, “INDAZOLE BASED COMPOUNDS AND ASSOCIATED METHODS OF USE” (Arvinas Operations, Inc., priority 2020, published 2025).

Some results are limits rather than exact numbers.

One assay addresses T1, G2019S LRRK2 (Homo sapiens, UniProt Q5S007, G2019S).
T1 construct: expressed in transfected cells; host or cells: HEK293 (ATCC CRL-1573), transient transfection, ubiquitin promoter
Description: LRRK2 degradation assay, G2019S LRRK2-HiBit expressed from plasmid in HEK293 cells. It is filed as cell-based. Particulars: HEK293 cells transfected with HiBit-tagged G2019S LRRK2, 24 hours compound incubation. A digest of the protocol: (§1)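 DC50 and Dmax derived from per-plate curve fits of LRRK2-HiBit signal over firefly luciferase (cell number/viability), as % of DMSO median, from 6 replicates across two days. Compound exposure was 24 hours at 37° C. in HEK293 cells transfected with wild-type or G2019S LRRK2 bearing a C-terminal HiBit tag.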

The next assay concerns the target T2, wildtype LRRK2 (Homo sapiens, UniProt Q5S007).
T2 construct: expressed in transfected cells; host or cells: HEK293 (ATCC CRL-1573), transient transfection, ubiquitin promoter
Put plainly: LRRK2 degradation assay, wildtype LRRK2-HiBit expressed from plasmid in HEK293 cells. In kind it is cell-based. Particulars: HEK293 cells transfected with HiBit-tagged wildtype LRRK2, 24 hours compound incubation; for Dmax: read-out: **WT Dmax (%); for DC50: read-out: *WT DC50. In a few lines: as §1

T2 sequence (Q5S007 whole entry): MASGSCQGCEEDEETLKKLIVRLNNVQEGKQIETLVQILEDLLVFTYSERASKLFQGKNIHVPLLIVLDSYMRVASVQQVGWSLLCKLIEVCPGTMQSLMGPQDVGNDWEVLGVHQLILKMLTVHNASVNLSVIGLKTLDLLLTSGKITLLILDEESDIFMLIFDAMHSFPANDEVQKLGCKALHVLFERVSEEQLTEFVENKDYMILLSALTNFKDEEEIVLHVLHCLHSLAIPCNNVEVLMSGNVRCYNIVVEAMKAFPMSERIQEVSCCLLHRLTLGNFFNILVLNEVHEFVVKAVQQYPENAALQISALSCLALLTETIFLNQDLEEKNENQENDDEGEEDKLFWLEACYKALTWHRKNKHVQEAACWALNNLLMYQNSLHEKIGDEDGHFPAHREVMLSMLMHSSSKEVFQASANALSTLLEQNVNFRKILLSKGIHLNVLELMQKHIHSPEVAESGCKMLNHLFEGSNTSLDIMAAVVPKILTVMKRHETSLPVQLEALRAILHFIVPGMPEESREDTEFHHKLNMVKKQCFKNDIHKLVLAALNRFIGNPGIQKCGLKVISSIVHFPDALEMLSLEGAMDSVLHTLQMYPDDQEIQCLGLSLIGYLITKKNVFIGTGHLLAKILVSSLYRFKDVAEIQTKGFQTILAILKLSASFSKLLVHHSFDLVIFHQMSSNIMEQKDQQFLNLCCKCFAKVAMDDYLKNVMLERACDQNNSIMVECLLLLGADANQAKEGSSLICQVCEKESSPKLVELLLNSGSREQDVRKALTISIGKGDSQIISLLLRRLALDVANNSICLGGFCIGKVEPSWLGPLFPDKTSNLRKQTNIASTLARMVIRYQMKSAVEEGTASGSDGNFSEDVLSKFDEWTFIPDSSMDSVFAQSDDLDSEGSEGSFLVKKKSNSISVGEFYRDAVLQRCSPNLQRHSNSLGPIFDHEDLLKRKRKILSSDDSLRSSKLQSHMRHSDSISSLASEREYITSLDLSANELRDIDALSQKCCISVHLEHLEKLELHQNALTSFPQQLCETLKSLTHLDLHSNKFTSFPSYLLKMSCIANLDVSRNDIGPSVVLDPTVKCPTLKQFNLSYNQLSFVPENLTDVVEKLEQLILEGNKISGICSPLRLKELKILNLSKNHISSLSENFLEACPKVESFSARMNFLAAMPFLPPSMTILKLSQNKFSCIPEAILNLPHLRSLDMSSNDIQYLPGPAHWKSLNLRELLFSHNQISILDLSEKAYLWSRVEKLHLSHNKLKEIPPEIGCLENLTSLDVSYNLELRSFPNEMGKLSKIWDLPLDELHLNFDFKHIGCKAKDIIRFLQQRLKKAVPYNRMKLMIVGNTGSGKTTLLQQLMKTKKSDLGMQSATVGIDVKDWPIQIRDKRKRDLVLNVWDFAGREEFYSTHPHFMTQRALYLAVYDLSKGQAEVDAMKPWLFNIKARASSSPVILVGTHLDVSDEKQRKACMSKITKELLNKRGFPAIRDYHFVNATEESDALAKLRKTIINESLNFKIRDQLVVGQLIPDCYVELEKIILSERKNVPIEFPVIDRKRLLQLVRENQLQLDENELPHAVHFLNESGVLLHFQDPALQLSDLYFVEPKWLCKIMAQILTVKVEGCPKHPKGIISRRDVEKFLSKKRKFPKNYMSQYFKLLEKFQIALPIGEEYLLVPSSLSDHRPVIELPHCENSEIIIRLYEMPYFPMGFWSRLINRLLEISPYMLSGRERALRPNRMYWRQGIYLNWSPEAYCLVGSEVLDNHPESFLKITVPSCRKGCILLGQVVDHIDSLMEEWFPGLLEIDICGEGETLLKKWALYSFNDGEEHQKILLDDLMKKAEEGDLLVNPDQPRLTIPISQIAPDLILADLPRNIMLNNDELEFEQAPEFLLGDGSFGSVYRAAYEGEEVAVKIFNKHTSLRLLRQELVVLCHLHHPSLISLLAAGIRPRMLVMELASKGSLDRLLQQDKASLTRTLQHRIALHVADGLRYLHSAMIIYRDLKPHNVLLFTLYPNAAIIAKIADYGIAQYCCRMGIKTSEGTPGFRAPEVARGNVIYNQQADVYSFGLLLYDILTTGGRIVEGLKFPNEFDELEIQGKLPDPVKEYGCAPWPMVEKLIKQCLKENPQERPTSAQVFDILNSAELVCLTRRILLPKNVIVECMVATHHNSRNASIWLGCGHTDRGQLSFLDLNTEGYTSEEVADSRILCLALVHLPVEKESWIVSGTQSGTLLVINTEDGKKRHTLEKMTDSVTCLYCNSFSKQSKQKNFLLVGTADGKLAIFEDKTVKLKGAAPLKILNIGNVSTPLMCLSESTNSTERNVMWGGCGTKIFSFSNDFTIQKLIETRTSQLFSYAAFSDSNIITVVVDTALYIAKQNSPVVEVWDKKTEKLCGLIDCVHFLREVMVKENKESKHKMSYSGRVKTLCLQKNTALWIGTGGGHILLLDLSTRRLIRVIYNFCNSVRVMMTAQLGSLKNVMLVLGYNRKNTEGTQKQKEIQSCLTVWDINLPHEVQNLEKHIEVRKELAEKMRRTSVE
T1 sequence (Q5S007 whole entry G2019S): as the sequence (Q5S007 whole entry) above, with G2019S counted along it

For orientation: DC50 means the midpoint of the concentration-degradation curve. The term Dmax denotes the largest share of the target that was removed. With `CC(C)Oc1ccc2[nH]nc(-c3cc(N4CCN(CCN(C)CCCN5CCN(c6ccc7c(c6)C(=O)N(C6CCC(=O)NC6=O)C7=O)CC5)[C@@H](C)C4)ncn3)c2c1` (stereo partly drawn) [compound 36, 2-(2,6-dioxopiperidin-3-yl)-5-(4-{3-[methyl({2-[(2S)-2-methyl-4-{6-[5-(propan-2-yloxy)-1H-indazol-3-yl]pyrimidin-4-yl}piperazin-1-yl]ethyl})amino]propyl}piperazin-1-yl)-2,3-dihydro-1H-isoindole-1,3-dione], on G2019S LRRK2, the DC50 lay within 10 to 50 nM and the greatest degradation seen (Dmax) was no less than 70%. At wildtype LRRK2, the greatest degradation seen (Dmax) is no less than 70% and the 50% degradation concentration (DC50) is 10 to 50 nM.

At G2019S LRRK2, `CC(C)Oc1ccc2[nH]nc(-c3cc(N4CCN(CCN5CC6(CN(CCOc7ccc8c(c7)C(=O)N(C7CCC(=O)NC7=O)C8=O)C6)C5)[C@@H](C)C4)ncn3)c2c1` (stereo partly drawn) [compound 35, 2-(2,6-dioxopiperidin-3-yl)-5-[2-(6-{2-[(2S)-2-methyl-4-{6-[5-(propan-2-yloxy)-1H-indazol-3-yl]pyrimidin-4-yl}piperazin-1-yl]ethyl}-2,6-diazaspiro[3.3]heptan-2-yl)ethoxy]-2,3-dihydro-1H-isoindole-1,3-dione] displayed a 50% degradation concentration (DC50) of 50 to 100 nM and a maximal degradation (Dmax) of less than 50%. On wildtype LRRK2, the maximal degradation (Dmax) was less than 50% and the DC50 is 50 to 100 nM.

For the compound `CC(C)Oc1ccc2[nH]nc(-c3cc(N4CCN(CCN5CCC(CN6CCN(c7ccc8c(c7)C(=O)N(C7CCC(=O)NC7=O)C8=O)CC6)CC5)CC4)ncn3)c2c1` (centres unmarked) [compound 27, 2-(2,6-dioxopiperidin-3-yl)-5-[4-({1-[2-(4-{6-[5-(propan-2-yloxy)-1H-indazol-3-yl]pyrimidin-4-yl}piperazin-1-yl)ethyl]piperidin-4-yl}methyl)piperazin-1-yl]-2,3-dihydro-1H-isoindole-1,3-dione], at G2019S LRRK2, the DC50 is less than 10 nM and the greatest degradation seen (Dmax) is no less than 70%. Moreover, on wildtype LRRK2, the Dmax was no less than 70% and the half-maximal degradation concentration (DC50) is less than 10 nM.

Regarding `CC(C)Oc1ccc2[nH]nc(-c3cc(N4CCN(CCN5CCN(CC6CCN(c7ccc8c(c7)C(=O)N(C7CCC(=O)NC7=O)C8=O)CC6)CC5)CC4)ncn3)c2c1` (centres unmarked) [compound 39, 2-(2,6-dioxopiperidin-3-yl)-5-(4-((4-(2-(4-(6-(5-isopropoxy-1H-indazol-3-yl)pyrimidin-4-yl)piperazin-1-yl)ethyl)piperazin-1-yl)methyl)piperidin-1-yl)isoindoline-1,3-dione], at G2019S LRRK2, the 50% degradation concentration (DC50) lay within 10 to 50 nM and the greatest degradation seen (Dmax) is no less than 70%. On wildtype LRRK2, the Dmax is no less than 70% and the DC50 was less than 10 nM.

At G2019S LRRK2, `CC(C)Oc1ccc2[nH]nc(-c3cc(N4CCN(CCN5CCN(CC6CCN(c7ccc8c(c7)C(=O)N(C7CCC(=O)NC7=O)C8=O)CC6)CC5)[C@@H](C)C4)ncn3)c2c1` (stereo partly drawn) [compound 26, 2-(2,6-dioxopiperidin-3-yl)-5-{4-[(4-{2-[(2S)-2-methyl-4-{6-[5-(propan-2-yloxy)-1H-indazol-3-yl]pyrimidin-4-yl}piperazin-1-yl]ethyl}piperazin-1-yl)methyl]piperidin-1-yl}-2,3-dihydro-1H-isoindole-1,3-dione] yielded a 50% degradation concentration (DC50) of 10 to 50 nM and a Dmax of no less than 70%. Moreover, at wildtype LRRK2, the Dmax was no less than 70% and the 50% degradation concentration (DC50) lay in the range of 10 to 50 nM.

Consider `CC(C)Oc1ccc2[nH]nc(-c3cc(N4CCN(CCN(C)CCN5CCN(c6ccc7c(c6)C(=O)N(C6CCC(=O)NC6=O)C7=O)CC5)[C@@H](C)C4)ncn3)c2c1` (stereo partly drawn) [compound 37, 2-(2,6-dioxopiperidin-3-yl)-5-(4-{2-[methyl({2-[(2S)-2-methyl-4-{6-[5-(propan-2-yloxy)-1H-indazol-3-yl]pyrimidin-4-yl}piperazin-1-yl]ethyl})amino]ethyl}piperazin-1-yl)-2,3-dihydro-1H-isoindole-1,3-dione], for which, on G2019S LRRK2, the half-maximal degradation concentration (DC50) fell in the range of 50 to 100 nM and the Dmax fell in the range of 50 to 70%. At wildtype LRRK2, the Dmax is 50 to 70% and the DC50 is no less than 100 nM.

In the case of `C[C@H]1CN(c2cc(-c3n[nH]c4ccc(OC5(C)CC5)cc34)ncn2)CCN1CCN1CCC(CN2CCN(c3ccc4c(c3)C(=O)N(C3CCC(=O)NC3=O)C4=O)CC2)CC1` (stereo partly drawn) [compound 29, 2-(2,6-dioxopiperidin-3-yl)-5-{4-[(1-{2-[(2S)-2-methyl-4-{6-[5-(1-methylcyclopropoxy)-1H-indazol-3-yl]pyrimidin-4-yl}piperazin-1-yl]ethyl}piperidin-4-yl)methyl]piperazin-1-yl}-2,3-dihydro-1H-isoindole-1,3-dione], the DC50 at G2019S LRRK2 and on wildtype LRRK2 was less than 10 nM throughout. Also, the Dmax at G2019S LRRK2 and at wildtype LRRK2 was no less than 70% in each case.

At G2019S LRRK2, `CC(C)Oc1cc2c(-c3ccnc(N4CCN(CCOCCOCCOCCOc5ccc6c(c5)C(=O)N(C5CCC(=O)NC5=O)C6=O)[C@@H](C)C4)c3)n[nH]c2cc1F` (stereo partly drawn) [compound 14, 2-(2,6-dioxopiperidin-3-yl)-5-{2-[2-(2-{2-[(2S)-4-{4-[6-fluoro-5-(propan-2-yloxy)-1H-indazol-3-yl]pyridin-2-yl}-2-methylpiperazin-1-yl]ethoxy}ethoxy)ethoxy]ethoxy}-2,3-dihydro-1H-isoindole-1,3-dione] had a 50% degradation concentration (DC50) of no less than 100 nM and a Dmax of 50 to 70%. Further, on wildtype LRRK2, the Dmax was no less than 70% and the DC50 is no less than 100 nM.

`C[C@H]1CN(c2cc(-c3n[nH]c4ccc(OC5(C)CC5)cc34)ccn2)CCN1CCOCCOCCOCCOc1ccc2c(c1)C(=O)N(C1CCC(=O)NC1=O)C2=O` (stereo partly drawn) [compound 12, 2-(2,6-dioxopiperidin-3-yl)-5-{2-[2-(2-{2-[(2S)-2-methyl-4-{4-[5-(1-methylcyclopropoxy)-1H-indazol-3-yl]pyridin-2-yl}piperazin-1-yl]ethoxy}ethoxy)ethoxy]ethoxy}-2,3-dihydro-1H-isoindole-1,3-dione]: at G2019S LRRK2, the 50% degradation concentration (DC50) is less than 10 nM and the maximal degradation (Dmax) was no less than 70%. At wildtype LRRK2, the Dmax was no less than 70% and the 50% degradation concentration (DC50) was less than 10 nM.

At G2019S LRRK2, `CC(C)Oc1ccc2[nH]nc(-c3cc(N4CCN(CCN5CC(CN6CCN(c7ccc8c(c7)C(=O)N(C7CCC(=O)NC7=O)C8=O)CC6)C5)CC4)ncn3)c2c1` (centres unmarked) [compound 45, 2-(2,6-dioxopiperidin-3-yl)-5-(4-((1-(2-(4-(6-(5-isopropoxy-1H-indazol-3-yl)pyrimidin-4-yl)piperazin-1-yl)ethyl)azetidin-3-yl)methyl)piperazin-1-yl)isoindoline-1,3-dione] displayed a half-maximal degradation concentration (DC50) of no less than 100 nM and a Dmax of less than 50%. Also, on wildtype LRRK2, the Dmax is less than 50% and the half-maximal degradation concentration (DC50) was 10 to 50 nM.

In the case of `CC1(Oc2ccc3[nH]nc(-c4cc(N5CCO[C@@H](CCOCCOCCOCCOc6ccc7c(c6)C(=O)N(C6CCC(=O)NC6=O)C7=O)C5)ncn4)c3c2)CC1` (stereo partly drawn) [compound 18, 2-(2,6-dioxopiperidin-3-yl)-5-{2-[2-(2-{2-[(2S)-4-{6-[5-(1-methylcyclopropoxy)-1H-indazol-3-yl]pyrimidin-4-yl}morpholin-2-yl]ethoxy}ethoxy)ethoxy]ethoxy}-2,3-dihydro-1H-isoindole-1,3-dione], the DC50 on G2019S LRRK2 and on wildtype LRRK2 was less than 10 nM in each case. Also, the maximal degradation (Dmax) at G2019S LRRK2 and at wildtype LRRK2 was no less than 70% each time.
